Experimental data as given in publication PMC6769459, “Inhibition of Tyrosine-Phosphorylated STAT3 in Human Breast and Lung Cancer Cells by Manuka Honey is Mediated by Selective Antagonism of the IL-6 Receptor” (International Journal of Molecular Sciences, 2019).
Values joined by “and” are separate entries in the source; they are usually repeats but may differ in a detail not shown here. Equal entries are not always repeated. “Also recorded” adds a separate entry of the source.

How the values were obtained:
[1] = system: p-STAT3 in MDA-MB-231 cells; assay: Western blot of p-STAT3 / total STAT3 in MDA-MB-231 cells; assay type: cell-based, human; settings: for IC50: Homo sapiens, MDA-MB-231, 1 h, MDA-MB-231, 1 h treatment, densitometry of Western blots, approximate, read-out: IC50 for inhibition of p-STAT3 levels
Procedure: The expression of different proteins involved in IL-6 signaling pathway was analyzed by Western blots, as previously described. Briefly, MDA-MB-231 or A549 cells (2 × 10^6 cells/well) were seeded overnight in DMEM/RPMI plus 2% FBS, followed by incubation with MH or sugar control (SC) in 5% FBS-DMEM/RPMI for different times, as indicated in the figures. In some studies, we investigated the effect of treatment with different flavonoid compounds on p-STAT3 expression using a range of doses (0.4–50 μM). In other experiments, we also studied the effect of incubating MDA-MB-231 cells in the presence of Brefeldin A (BFA; 1 mg/mL) alone or with 1% MH for 4 h on p-STAT3 levels. Cell extracts were prepared in RIPA buffer and subjected to Western blot analysis using antibodies (purchased from Cell Signaling Technology, Danvers, MA, USA) specific to total STAT3 (t-STAT3), tyrosine-phosphorylated (Tyr705) STAT3 (p-STAT3), gp130, JAK2, tyrosine-phosphorylated (Tyr1007/1008) JAK2 (p-JAK2), tyrosine-phosphorylated (Tyr416) Src family (p-Src), total Src, and β-actin. Densitometric analysis of the band intensity on the blots was done using ImageJ (National Institutes of Health, USA). We modeled the binding inhibition pharmacodynamics of p-STAT3 levels as standard drug-receptor interactions based on mass-action kinetics. Specifically, dose response was modelled as: Y=[L]/[L]+K where Y is the receptor occupancy, L is the ligand concentration, and K is a compound-specific association constant.
Statistical significance between control and treated groups was analyzed using the unpaired, two-tailed Student’s t-test, using the statistical program of GraphPad Prism version 6 software (San Diego, CA, USA). For multiple comparisons, we used ordinary two-way ANOVA (GraphPad Prism). Differences between the experimental groups were considered significant when p values were <0.05. Nonlinear regression best-fit curve analysis was used to determine the IC50 for p-STAT3 inhibition.

[2] = system: p-STAT3 in human bladder cancer cells; parameters: method as in PMID 29805643; settings: 40–80 μM, mostly after 24 h; cited from earlier work
IL-6Rα = target: T1, IL-6Rα (Homo sapiens, UniProt P08887); assay: ELISA-based competitive binding assay, IL-6 binding to immobilized IL-6Rα
T1 construct: purchased R&D Systems
T1 sequence (P08887 20-355 limits assumed): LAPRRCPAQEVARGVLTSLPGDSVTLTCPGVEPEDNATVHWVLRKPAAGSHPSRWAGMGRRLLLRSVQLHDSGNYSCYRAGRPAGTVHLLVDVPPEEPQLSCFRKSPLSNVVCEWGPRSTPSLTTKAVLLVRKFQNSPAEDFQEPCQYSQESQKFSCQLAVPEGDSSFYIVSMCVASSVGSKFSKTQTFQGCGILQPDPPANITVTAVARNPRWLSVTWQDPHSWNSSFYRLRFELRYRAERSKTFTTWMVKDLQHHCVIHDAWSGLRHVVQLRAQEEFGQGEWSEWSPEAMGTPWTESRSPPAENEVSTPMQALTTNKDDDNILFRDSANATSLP
Procedure: We used an ELISA-based assay to determine if MH can bind to recombinant IL-6Rα, IL-8R, and IL-11Rα proteins (all purchased from R&D Systems; Minneapolis, MN, USA). IL-6Rα (2 μg/mL), IL-8R (0.5 μg/mL), or IL-11Rα (1 μg/mL) proteins were coated on 96-well plates by overnight incubation at 4 °C. The plates were then washed with PBS + 0.05% tween 20 and blocked with PBS containing 1% BSA for 1 h at room temperature. For competition assay, various concentrations of MH (0.03–3%) were added to recombinant receptor-coated plates and incubated for 1 h at room temperature. After thorough washing, recombinant IL-6, IL-8, or IL-11 cytokines were added (50 ng/mL) and incubated for 1 h at 37 °C. The plates were then thoroughly washed and biotin-conjugated mAbs to IL-6 (0.25 µg/mL), IL-8 (0.5 µg/mL) or IL-11 (0.5 µg/mL) were added for 1 h at room temperature. After another round of washing, HRP-conjugated streptavidin was added for 30 min, washed, and developed by adding 3,3′,5,5′-Tetramethylbenzidine (TMB) substrate for 10 min. Additionally, the potential effect of flavonoid compounds (luteolin, quercetin, galangin, and chrysin; dose range 0.5–50 μM) on binding to IL-6Rα was investigated in the same assay. The dose-response was modeled based on mass-action kinetic drug-response interactions.

[3] = system: STAT3 in different types of cancer cells; parameters: method as in PMID 16651438, PMID 23145121, PMID 24525192, PMID 24998588, PMID 26527884; settings: different cancer cell types; cited from earlier work
[4] = system: p-STAT3 in lung cancer cells; parameters: method as in PMID 25830055; settings: 66 μM, 12–24 h; cited from earlier work
[5] = 10-fold lower concentration (5 μM)

SMILES | p-STAT3 levels ([1]; MDA-MB-231, 4 h, Brefeldin A 1 mg/mL alone or with 1% MH) | IC50 [1] | p-STAT3 [2] | inhibition of IL-6 binding to IL-6Rα (IL-6Rα; 50 μM flavonoid) | inhibition of IL-6 binding to IL-6Rα (IL-6Rα; [5]) | concentration range at which inhibitory effects were observed [3] | binding to IL-6Rα (IL-6Rα; up to 50 μM) | p-STAT3 levels [4]
C[C@H]1CCC/C=C/[C@@H]2C[C@H](O)C[C@H]2[C@H](O)/C=C/C(=O)O1 [Brefeldin A] | significant loss | – | – | – | – | – | – | –
O=c1cc(-c2ccccc2)oc2cc(O)cc(O)c12 [chrysin] | – | ~7.7 µM and 2 µg/mL | inhibit p-STAT3 | 31.8% | decreased but significant inhibition | – | – | –
O=c1c(O)c(-c2ccccc2)oc2cc(O)cc(O)c12 [galangin] | – | ~4.4 µM and 1.2 µg/mL | – | 34.3% | decreased but significant inhibition | – | – | –
O=c1cc(-c2ccc(O)c(O)c2)oc2cc(O)cc(O)c12 [luteolin] | – | ~3.5 µM and 1 µg/mL | – | 22.4% | – | 20 to 50 µM | – | –
O=C1C[C@@H](c2ccccc2)Oc2cc(O)cc(O)c21 [pinocembrin] | – | ~70.2 µM and 18 µg/mL | – | – | – | – | no significant binding; also recorded: inability to detect any binding | –
O=c1c(O)c(-c2ccc(O)c(O)c2)oc2cc(O)cc(O)c12 [quercetin] | – | ~51 µM and 15.4 µg/mL | – | 29.2% | decreased but significant inhibition | – | – | reduce p-STAT3 levels
